Results reported in ChEMBL document CHEMBL5705898 (Proc Natl Acad Sci U S A, 2014).

Tests used:
Homo sapiens [1] = species on record: Homo sapiens; assay: Inhibition of human 5-HT3 receptor at 10 uM relative to control
[2] = molecular target: Vascular endothelial growth factor receptor 1 (Homo sapiens) (UniProt P17948); assay: Inhibition of human FLT-1 kinase (VEGFR1) at 10 uM relative to control
[3] = Permeability of compound in MDCKII-LE cells; format: ADME, cell-based, Canis lupus familiaris; conditions: dog, MDCK; read-out: permeability
[4] = molecular target: High affinity choline transporter 1 (Homo sapiens) (UniProt Q9GZV3); assay: Inhibition of human choline transporter (CHT1) at 10 uM relative to control
High affinity choline transporter 1 (Homo sapiens), sequence (Q9GZV3 whole entry): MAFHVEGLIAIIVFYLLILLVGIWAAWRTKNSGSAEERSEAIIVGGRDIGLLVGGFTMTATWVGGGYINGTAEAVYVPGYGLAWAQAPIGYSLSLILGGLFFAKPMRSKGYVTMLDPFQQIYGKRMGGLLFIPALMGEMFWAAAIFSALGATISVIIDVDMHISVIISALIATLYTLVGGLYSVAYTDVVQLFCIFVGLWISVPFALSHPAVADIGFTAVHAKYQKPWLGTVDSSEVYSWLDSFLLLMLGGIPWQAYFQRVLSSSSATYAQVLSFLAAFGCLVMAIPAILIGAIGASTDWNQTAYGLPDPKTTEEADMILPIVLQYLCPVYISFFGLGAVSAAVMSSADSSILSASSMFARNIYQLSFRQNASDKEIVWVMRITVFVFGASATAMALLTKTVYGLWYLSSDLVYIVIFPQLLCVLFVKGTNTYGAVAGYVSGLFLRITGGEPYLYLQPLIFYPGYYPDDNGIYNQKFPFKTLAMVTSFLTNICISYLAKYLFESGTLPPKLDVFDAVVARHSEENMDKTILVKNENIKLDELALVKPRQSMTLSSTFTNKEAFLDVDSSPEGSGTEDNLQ

[5] = molecular target: Histamine H2 receptor (Homo sapiens) (UniProt P25021); assay: Inhibition of human H2 receptor at 10 uM relative to control
Histamine H2 receptor (Homo sapiens), sequence (P25021 whole entry): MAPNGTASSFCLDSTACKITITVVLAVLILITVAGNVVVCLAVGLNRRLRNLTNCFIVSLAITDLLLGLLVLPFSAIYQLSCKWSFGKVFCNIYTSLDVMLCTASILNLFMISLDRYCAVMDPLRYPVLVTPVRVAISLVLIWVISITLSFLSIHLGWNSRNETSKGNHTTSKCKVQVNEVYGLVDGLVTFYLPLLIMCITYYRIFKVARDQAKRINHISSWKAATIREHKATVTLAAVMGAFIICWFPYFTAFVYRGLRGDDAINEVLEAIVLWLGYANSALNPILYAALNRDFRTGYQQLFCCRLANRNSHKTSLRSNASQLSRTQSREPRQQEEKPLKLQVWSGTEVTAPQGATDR

[6] = molecular target: Sodium-dependent noradrenaline transporter (Homo sapiens) (UniProt P23975); assay: Inhibition of human norepinephrine transporter at 10 uM relative to control
Sodium-dependent noradrenaline transporter (Homo sapiens), sequence (P23975 whole entry): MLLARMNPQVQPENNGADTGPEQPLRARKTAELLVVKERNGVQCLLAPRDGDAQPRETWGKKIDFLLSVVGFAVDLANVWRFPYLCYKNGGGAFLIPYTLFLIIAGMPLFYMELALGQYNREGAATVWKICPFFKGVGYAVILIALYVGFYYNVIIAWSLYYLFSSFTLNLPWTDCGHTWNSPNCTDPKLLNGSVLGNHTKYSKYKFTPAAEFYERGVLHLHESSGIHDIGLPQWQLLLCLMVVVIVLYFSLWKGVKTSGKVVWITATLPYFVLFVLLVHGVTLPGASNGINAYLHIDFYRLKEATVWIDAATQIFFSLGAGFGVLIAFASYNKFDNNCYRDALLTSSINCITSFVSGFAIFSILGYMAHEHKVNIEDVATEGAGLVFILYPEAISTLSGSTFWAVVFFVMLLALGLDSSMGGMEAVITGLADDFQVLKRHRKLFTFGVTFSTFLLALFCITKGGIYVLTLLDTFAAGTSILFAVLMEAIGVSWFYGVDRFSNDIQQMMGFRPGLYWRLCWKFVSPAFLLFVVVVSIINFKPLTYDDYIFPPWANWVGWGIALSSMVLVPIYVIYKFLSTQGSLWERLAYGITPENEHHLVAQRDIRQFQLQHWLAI

Homo sapiens [7] = species on record: Homo sapiens; assay: Inhibition of Ca2+ channel L, dihydropyridine site (unknown origin) at 10 uM relative to control
[8] = molecular target: Glucagon receptor (Homo sapiens) (UniProt P47871); assay: Inhibition of human Glucagon receptor at 10 uM relative to control
[9] = molecular target: Alpha-2B adrenergic receptor (Homo sapiens) (UniProt P18089); assay: Inhibition of human alpha 2B receptor at 10 uM relative to control
[10] = molecular target: xanthine oxidase (Xanthine dehydrogenase/oxidase) (Homo sapiens, UniProt P47989); assay: Inhibition of xanthine oxidase (unknown origin) at 10 uM relative to control
xanthine oxidase (Xanthine dehydrogenase/oxidase), sequence (P47989 whole entry): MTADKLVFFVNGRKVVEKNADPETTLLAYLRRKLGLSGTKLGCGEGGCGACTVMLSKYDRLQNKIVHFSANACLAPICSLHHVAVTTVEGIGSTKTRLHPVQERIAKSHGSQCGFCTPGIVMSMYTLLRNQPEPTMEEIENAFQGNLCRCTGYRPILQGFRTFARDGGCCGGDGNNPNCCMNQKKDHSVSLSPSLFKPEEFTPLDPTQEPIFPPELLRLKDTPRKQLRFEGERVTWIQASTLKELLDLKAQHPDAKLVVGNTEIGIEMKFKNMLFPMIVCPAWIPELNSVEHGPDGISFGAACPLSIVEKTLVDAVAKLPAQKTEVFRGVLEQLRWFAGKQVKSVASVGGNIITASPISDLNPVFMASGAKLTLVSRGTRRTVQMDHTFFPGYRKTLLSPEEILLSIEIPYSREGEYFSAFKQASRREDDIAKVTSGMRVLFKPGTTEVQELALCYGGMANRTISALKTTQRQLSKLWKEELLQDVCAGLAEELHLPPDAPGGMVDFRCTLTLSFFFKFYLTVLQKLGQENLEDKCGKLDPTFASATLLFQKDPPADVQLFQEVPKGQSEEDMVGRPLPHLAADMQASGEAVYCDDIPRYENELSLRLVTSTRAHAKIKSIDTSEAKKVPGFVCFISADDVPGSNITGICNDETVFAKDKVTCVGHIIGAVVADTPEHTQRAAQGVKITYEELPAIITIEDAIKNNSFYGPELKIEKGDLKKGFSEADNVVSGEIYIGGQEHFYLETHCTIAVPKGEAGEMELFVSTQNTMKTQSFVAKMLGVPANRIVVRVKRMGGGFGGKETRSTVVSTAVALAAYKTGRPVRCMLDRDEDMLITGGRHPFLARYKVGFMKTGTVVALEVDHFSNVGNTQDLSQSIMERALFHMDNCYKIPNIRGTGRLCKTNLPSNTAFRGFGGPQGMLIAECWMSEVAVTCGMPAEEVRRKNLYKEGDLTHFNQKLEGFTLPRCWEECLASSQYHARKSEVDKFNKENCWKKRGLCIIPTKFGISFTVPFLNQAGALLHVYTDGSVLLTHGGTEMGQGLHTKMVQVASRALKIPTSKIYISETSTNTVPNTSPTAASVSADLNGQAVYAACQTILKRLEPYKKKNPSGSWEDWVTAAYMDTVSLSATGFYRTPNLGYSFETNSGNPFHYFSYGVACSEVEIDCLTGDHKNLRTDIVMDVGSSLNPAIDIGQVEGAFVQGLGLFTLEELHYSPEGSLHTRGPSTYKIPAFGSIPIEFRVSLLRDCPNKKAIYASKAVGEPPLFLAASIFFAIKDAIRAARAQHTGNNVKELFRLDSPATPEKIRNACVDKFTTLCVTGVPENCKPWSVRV

[11] = Lipophilicity, logD of compound at pH 7.4; format: physicochemical; conditions: buffer
[12] = molecular target: Leukotriene B4 receptor 1 (Homo sapiens) (UniProt Q15722); assay: Inhibition of human BLT1 at 10 uM relative to control
[13] = molecular target: Beta-secretase 1 (Homo sapiens) (UniProt P56817); assay: Inhibition of human BACE-1 at 10 uM relative to control
Beta-secretase 1 (Homo sapiens), sequence (P56817 whole entry): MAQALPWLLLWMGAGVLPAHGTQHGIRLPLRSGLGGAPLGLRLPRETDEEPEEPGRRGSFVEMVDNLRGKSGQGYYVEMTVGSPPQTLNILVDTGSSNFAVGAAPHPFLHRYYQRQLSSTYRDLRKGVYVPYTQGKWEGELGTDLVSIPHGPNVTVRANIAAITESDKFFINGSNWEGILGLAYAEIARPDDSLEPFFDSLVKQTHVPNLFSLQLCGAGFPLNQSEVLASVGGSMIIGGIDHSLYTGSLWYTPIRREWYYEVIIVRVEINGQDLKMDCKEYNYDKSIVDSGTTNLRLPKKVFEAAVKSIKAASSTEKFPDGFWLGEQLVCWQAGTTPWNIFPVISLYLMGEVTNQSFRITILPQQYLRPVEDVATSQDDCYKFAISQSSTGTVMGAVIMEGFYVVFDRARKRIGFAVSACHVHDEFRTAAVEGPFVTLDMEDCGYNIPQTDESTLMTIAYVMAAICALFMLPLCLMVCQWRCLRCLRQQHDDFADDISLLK

[14] = molecular target: D(3) dopamine receptor (Homo sapiens) (UniProt P35462); assay: Inhibition of human D3 receptor at 10 uM relative to control
D(3) dopamine receptor (Homo sapiens), sequence (P35462 whole entry): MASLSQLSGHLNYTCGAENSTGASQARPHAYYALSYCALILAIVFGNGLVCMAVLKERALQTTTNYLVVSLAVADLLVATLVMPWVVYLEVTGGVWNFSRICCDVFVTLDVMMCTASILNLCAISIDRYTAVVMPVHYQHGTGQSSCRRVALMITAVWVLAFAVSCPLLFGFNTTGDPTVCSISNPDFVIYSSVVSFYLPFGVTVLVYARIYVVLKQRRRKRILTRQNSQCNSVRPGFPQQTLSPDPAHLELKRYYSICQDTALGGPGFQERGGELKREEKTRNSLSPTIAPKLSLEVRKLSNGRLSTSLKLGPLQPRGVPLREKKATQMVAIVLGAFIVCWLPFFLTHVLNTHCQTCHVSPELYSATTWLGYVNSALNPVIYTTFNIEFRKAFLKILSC

[15] = molecular target: Prostaglandin F2-alpha receptor (Homo sapiens) (UniProt P43088); assay: Inhibition of human FP receptor at 10 uM relative to control
[16] = molecular target: Cysteinyl leukotriene receptor 1 (Homo sapiens) (UniProt Q9Y271); assay: Inhibition of human CysLT1 at 10 uM relative to control
Cysteinyl leukotriene receptor 1 (Homo sapiens), sequence (Q9Y271 whole entry): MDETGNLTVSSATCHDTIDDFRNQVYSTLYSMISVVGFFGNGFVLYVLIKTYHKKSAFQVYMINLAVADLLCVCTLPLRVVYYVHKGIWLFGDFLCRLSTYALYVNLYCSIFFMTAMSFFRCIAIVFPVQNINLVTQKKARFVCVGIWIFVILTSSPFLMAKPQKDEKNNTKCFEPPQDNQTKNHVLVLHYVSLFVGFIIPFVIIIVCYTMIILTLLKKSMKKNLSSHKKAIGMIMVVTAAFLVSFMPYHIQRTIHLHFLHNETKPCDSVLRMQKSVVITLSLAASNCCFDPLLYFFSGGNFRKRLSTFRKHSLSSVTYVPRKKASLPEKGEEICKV

[17] = molecular target: 5-hydroxytryptamine receptor 1B (Homo sapiens) (UniProt P28222); assay: Inhibition of 5-HT1B receptor (unknown origin) at 10 uM relative to control
[18] = molecular target: Alpha-1A adrenergic receptor (Homo sapiens) (UniProt P35348); assay: Inhibition of human alpha 1A receptor at 10 uM relative to control
Homo sapiens [19] = species on record: Homo sapiens; assay: Inhibition of GABA-gated Cl- channel (unknown origin) at 10 uM relative to control
[20] = molecular target: 5-hydroxytryptamine receptor 7 (Homo sapiens) (UniProt P34969); assay: Inhibition of human 5-HT7 receptor at 10 uM relative to control
[21] = molecular target: Adenosine receptor A3 (Homo sapiens) (UniProt P0DMS8); assay: Inhibition of human A3 receptor at 10 uM relative to control
Adenosine receptor A3 (Homo sapiens), sequence (P0DMS8 whole entry): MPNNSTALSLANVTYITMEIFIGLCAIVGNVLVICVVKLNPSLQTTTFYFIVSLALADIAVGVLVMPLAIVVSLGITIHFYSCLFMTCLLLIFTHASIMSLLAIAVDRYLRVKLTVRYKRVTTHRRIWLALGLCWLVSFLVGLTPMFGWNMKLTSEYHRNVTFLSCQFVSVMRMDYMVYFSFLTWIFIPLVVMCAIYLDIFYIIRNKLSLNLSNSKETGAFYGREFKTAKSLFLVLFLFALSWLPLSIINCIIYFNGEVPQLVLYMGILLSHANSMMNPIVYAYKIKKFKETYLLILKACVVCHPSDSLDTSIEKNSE

[22] = molecular target: Cholecystokinin receptor type A (Homo sapiens) (UniProt P32238); assay: Inhibition of human CCK1 receptor at 10 uM relative to control
Homo sapiens [23] = species on record: Homo sapiens; assay: Inhibition of Na+ channel site 2 (unknown origin) at 10 uM relative to control
[24] = molecular target: 72 kDa type IV collagenase (Homo sapiens) (UniProt P08253); assay: Inhibition of human MMP-2 at 10 uM relative to control
72 kDa type IV collagenase (Homo sapiens), sequence (P08253 110-660 limits assumed): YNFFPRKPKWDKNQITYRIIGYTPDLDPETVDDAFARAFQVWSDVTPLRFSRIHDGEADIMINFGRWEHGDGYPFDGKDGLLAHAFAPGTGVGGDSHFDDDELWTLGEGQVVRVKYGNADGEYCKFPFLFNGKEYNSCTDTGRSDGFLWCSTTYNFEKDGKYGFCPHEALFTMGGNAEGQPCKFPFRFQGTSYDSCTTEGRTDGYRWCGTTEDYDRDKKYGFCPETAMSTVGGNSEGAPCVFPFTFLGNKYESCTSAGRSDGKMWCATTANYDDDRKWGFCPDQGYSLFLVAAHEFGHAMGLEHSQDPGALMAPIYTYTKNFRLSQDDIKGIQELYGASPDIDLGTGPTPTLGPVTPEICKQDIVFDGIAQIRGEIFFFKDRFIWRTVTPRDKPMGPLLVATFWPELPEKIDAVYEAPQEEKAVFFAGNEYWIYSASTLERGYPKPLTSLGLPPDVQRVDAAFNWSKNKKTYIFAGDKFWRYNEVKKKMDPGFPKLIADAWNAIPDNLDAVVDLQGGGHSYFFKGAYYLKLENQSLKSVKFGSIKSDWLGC

[25] = molecular target: Alpha-2A adrenergic receptor (Homo sapiens) (UniProt P08913); assay: Inhibition of human alpha 2A receptor at 10 uM relative to control
MCF7 = assay: Cytotoxicity against human MCF7 cells assessed as reduction in cell viability at <50 uM by alamar blue assay; format: toxicity, cell-based; conditions: mcf7, 50 µM

O=C([C@@H](Cc1cccc(C(F)(F)F)c1)NS(=O)(=O)c1cc(F)c2c(c1)CCNC2)N1CCCC1
inhibition (Homo sapiens [1]): -2%
inhibition [2]: 1%
Papp [3]: 6.48 ×10⁻⁶ cm/s
inhibition [4]: 9%
inhibition [5]: 0%
inhibition [6]: 10%
inhibition (Homo sapiens [7]): -10%
inhibition [8]: 1%
inhibition [9]: 79%
inhibition at 10 µM [10]: 4%
logD [11]: 2.3
inhibition [12]: -8%
inhibition [13]: 3%
inhibition [14]: 43%
inhibition [15]: 3%
inhibition [16]: -1%
inhibition [17]: 7%
inhibition [18]: -3%
inhibition (Homo sapiens [19]): 28%
inhibition [20]: 41%
inhibition [21]: 12%
inhibition [22]: 8%
inhibition (Homo sapiens [23]): 43%
inhibition [24]: 15%
inhibition [25]: 15%
Activity (MCF7): Non-Toxic
